Data published in patent US5219879A, “Heterocyclic steroid compounds” (Du Pont Merck Pharmaceutical Company, priority 1991, dated 1993).

Assays:
[1] = test system: Puccinia recondita; test: Example G: wheat leaf rust on wheat seedlings; type: in vivo; conditions: 220 ppm, 100 = 100% disease control
Description: The test compounds were dissolved in acetone in an amount equal to 6% of the final volume and then suspended at a concentration of 220 ppm in purified water containing 250 ppm of the surfactant TREM 014 (polyhydric alcohol esters). This suspension was sprayed to the point of run-off on wheat seedlings. The following day plants were inoculated with a spore suspension of Puccinia recondita, the causal agent of wheat leaf rust, and incubated in a saturated humidity chamber at 20° C. for 48 hours and then in a growth chamber at 20° C. for 8 days, when disease ratings were made. […] A dashed entry indicates the specified test was not performed.

[2] = test system: Pyricularia oryzae; type: in vivo; conditions: rice seedlings, 200 ppm; 100 = 100% disease control
[3] = test system: Ersiphe graminis f. sp. tritici; test: Example D: wheat powdery mildew on wheat seedlings; type: in vivo; conditions: 200 ppm, 100 = 100% disease control
Description: The test compounds were dissolved in acetone in an amount equal to 6% of the final volume and then suspended at a concentration of 200 ppm in purified water containing 250 ppm of the surfactant TREM 014 (polyhydric alcohol esters). This suspension was sprayed to the point of run-off on wheat seedlings. […] A dashed entry indicates the specified test was not performed.

[4] = test system: Botyrtis cinerea; test: Example C: bean grey mold on broad bean seedlings; type: in vivo; conditions: 200 ppm, 100 = 100% disease control
Description: (§1) The test compounds were dissolved in acetone in an amount equal to 6% of the final volume and then suspended at a concentration of 200 ppm in purified water containing 250 ppm of the surfactant TREM 0914 (polyhydric alcohol esters). This suspension was sprayed to the point of run-off on broad bean seedlings. The following day plants were inoculated with a spore suspension of Botyrtis cinerea, the causal agent of bean grey mold, and incubated in a saturated humidity chamber at 20° C. for 24 hours when disease ratings were made. […] A dashed entry indicates the specified test was not performed.

[5] = test system: peanut seedlings; test: Example B: plant disease control on peanut seedlings; type: in vivo; conditions: 200 ppm, 100 = 100% disease control
Description: The test compounds were dissolved in acetone in an amount equal to 6% of the final volume and then suspended at a concentration of 200 ppm in purified water containing 250 ppm of the surfactant TREM […] (polyhydric alcohol esters). This suspension was sprayed to the point of run-off on peanut seedlings. The following day plants were incubated in a saturated humidity chamber at 22° C. for 24 hours, then in a high humidity chamber at 27° C. for 7 days, and then in a growth chamber at 29° C. for 7 days, when disease ratings were made.
In this table, a rating of 100 indicated 100% disease control, and a rating of 0 indicates no disease control relative to untreated plants that were inoculated and incubated as described in each Example. A dashed entry indicates the specified test was not performed.

[6] = test system: Venturia inaequalis; test: Example A: apple scab on apple seedlings; type: in vivo; conditions: 200 ppm, sprayed the day before inoculation, 100 = 100% disease control
Description: The test compounds were dissolved in acetone in an amount equal to 6% of the final volume and then suspended at a concentration of 200 ppm in purified water containing 250 ppm of the surfactant TREM 014 (polyhydric alcohol esters). This suspension was sprayed to the point of run-off on apple seedlings. The following day plants were inoculated with a spore suspension of Venturia inaequalis, the casual agent of apple scab, and incubated in a saturated humidity chamber at 20° C. for 24 hours and then in a growth chamber at 22° C. for 11 days, when disease ratings were made. […] A dashed entry indicates the specified test was not performed.

[7] = test system: 3-Hydroxy-3-Methylglutaryl Coenzyme A Reductase (HMGR); test: 3-Hydroxy-3-Methylglutaryl Coenzyme A Reductase (HMGR) Suppression Assay; type: cell-based, Chinese Hamster (CHO cells); conditions: CHO cells, 6 hr. at 37°; read-out: IC50 (amount of compound required to suppress HMGR activity by 50% relative to controls)
Description: The ability of the compounds of Formula I to suppress the activity of HMGR, the rate limiting enzyme of cholesterol biosynthesis, was tested as follows.
Chinese Hamster Ovary (CHO) cells were divided twice weekly and were maintained in McCoy's 5A medium supplemented with 1% carbosil delipidated Fetal Bovine System (FBS) (obtained from Gibco Laboratories, Chagrin Falls, Ohio). Cells were harvested during the logarithmic phase of growth and cell cultures were prepared by adding […] cells to each well in a 24 well cluster dish (obtained from Costar, Data Packaging Corp., Cambridge, Mass.) employing 1 ml of the above medium per each well. […] Control cells were treated in an identical fashion to those which received test compound, except they were incubated with the BSA and ethanol suspension only.
Specifically, the medium in each well was aspirated and the cells rinsed with a 50 mM solution of phosphate buffered saline (PBS). One ml of 30 mg/ml of digitonin in CSK buffer (prepared using 10 mM Pipes [piperazine-N,N'-bis (2-ethansulfonic) acid], 100 mM KCl, 2.5 mM MgCl2, 300 mM sucrose, 1 mM EGTA, pH 6.8) was added to each well and incubated for 10 min. at 22° to permeabilize the cells. The buffer was carefully aspirated and the wells were rinsed twice each time with 1 ml of PBS. HMGR activity was measured directly by adding 75 ml of PIB buffer (50 mM potassium phosphate, 1 mM Na2 EDTA, 10 mM dithiothreitol, pH 7.4) to each well and incubating the cells for 30 minutes at 37° as described above. […] The assay mixture was incubated for 30 min. at 37° and terminated by the addition of 70 ml of [^3 H]-mevalonicacid (35,000 DPM/assay), 0.15 mg/ml in 3N HCl.
The reaction was left to lactonize for an additional 30 min. at 37° or overnight at room temperature.
Reaction products were separated by thin layer chromatography on silica gel G (obtained from Analtech, Newark, Del.) developed in an unsaturated environment with acetone:benzene (3:2, v:v). The band corresponding to mevalonolactone was identified by exposure to iodine vapor and was scraped into counting vials. The extent of conversion of starting substrate, HMG-CoA, to mevalonic acid was determined by liquid scintillation counting in Biofluor (obtained from New England Nuclear, Boston, Mass.). Corrections for recovery and blank values were made for each sample. Protein determinations were made by Bio-Rad (Bio-Rad, Richmond, Calif.) dye binding assay according to the manufacturer's instruction using bovine serum albumin as standard. Cellular protein was solubilized from culture dishes by the addition of 20 μl of 16N KOH and assayed directly for protein amount. Suppression values are expressed as the amount of compound required to suppress HMGR activity by 50% relative to that of the controls.

[8] = test system: Botrytis cinerea; test: Example K: cucumber grey mold on cucumber seedlings; type: in vivo; conditions: 200 ppm, 100 = 100% disease control
Description: as §1, with “014” for “0914”, “cucumber” for “broad bean”, “Botrytis” for “Botyrtis”, “cucumber” for “bean”, “4 days” for “24 hours”

[9] = test system: Botrytis cinerea; test: Example J: grape grey mold on grape seedlings; type: in vivo; conditions: 200 ppm, 100 = 100% disease control
Description: as §1, with “014” for “0914”, “grape” for “broad bean”, “Botrytis” for “Botyrtis”, “grape” for “bean”, “96” for “24”

[10] = test system: Rhizoctonia solani; test: Example F: rice sheath blight on rice seedlings; type: in vivo; conditions: 220 ppm, 0 = no disease control, 100 = 100% disease control
Description: The test compounds were dissolved in acetone in an amount equal to 6% of the final volume and then suspended at a concentration of 220 ppm in purified water containing 250 ppm of the surfactant TREM 014 (polyhydric alcohol esters). This suspension was sprayed to the point of run-off on rice seedlings. The following day plants were inoculated with a mycelial suspension of Rhizoctonia solani, the causal agent of rice sheath blight, and incubated in a saturated humidity chamber at 27° C. for 48 hours and then in a growth chamber at 29° C. for 4 days, when disease ratings were made. […] A dashed entry indicates the specified test was not performed.

[11] = test system: Plasmopara victicola; test: Example I: grape downy mildew on grape seedlings; type: in vivo; conditions: 200 ppm, 100 = 100% disease control
Description: The test compounds were dissolved in acetone in an amount equal to 6% of the final volume and then suspended at a concentration of 200 ppm in purified water containing 250 ppm of the surfactant TREM 014 (polyhydric alcohol esters). This suspension was sprayed to the point of run-off on grape seedlings. The following day plants were inoculated with a spore suspension of Plasmopara victicola, the causal agent of grape downy mildew, and incubated in a saturated humidity chamber at 20° C. for 24 hours and then in a growth chamber at 20° C. for 7 days, and then held in a saturated humidity chamber at 20° C. for 24 hours, when disease ratings were made. […] A dashed entry indicates the specified test was not performed.

[12] = test system: Phytophthora infestans; type: in vivo; conditions: tomato seedlings, 200 ppm; 100 = 100% disease control
[13] = Lowering Blood Cholesterol Levels in Hamsters; type: in vivo, Male Golden Syrian hamsters; conditions: 0.2% (w/w) in feed, 7 days; means ± SEM; N = 10; pair-fed control 133.0 ± 4.0 (N = 20)
Description: Male Golden Syrian hamsters (50-60 grams) were obtained from Charles River, Inc. (Wilmington, Mass.).
Animals were housed in individual suspension cages and were maintained on a light cycle consisting of 12 hours of light followed by 12 hours of dark. Animals were allowed free access to water and feed (Agway ground chow, RMH 3200, Agway, Syracuse, N.Y.) containing 1% (w/w) corn oil) for a minimum of 4 weeks.
Following this stabilization period a sample of blood was collected by orbital sinus bleeding under light ether anesthesia into heparinized capillary tubes. Plasma was separated by centrifugation (600×g for 10 minutes) and plasma cholesterols were determined by an autoanalyzer (Centrifichem 600, Baker Instruments, Allentown, Pa.). Based upon measured plasma cholesterol values, the animals were randomized into two groups such that the mean plasma cholesterol values were identical for both groups.
Animals in the two groups were then placed on one of two diets: (1) Diet A, consisting of ground chow plus 1% (w/w) corn oil, as described above; or (2) Diet B, consisting of Diet A plus 0.2% (w/w) of a test compound. Animals on Diet B, the treated animals, were allowed free access to feed and water, while animals on Diet A were pair-matched with Diet B animals and served as pair-fed controls. […] Total plasma cholesterol levels were determined as described above. […]

SMILES | disease control rating, Example G [1] | disease control rating, Example E [2] | disease control rating, Example D [3] | disease control rating, Example C [4] | disease control rating, Example B [5] | disease control rating, Example A [6] | IC50 [7] | disease control rating, Example K [8] | disease control rating, Example J [9] | disease control rating, Example F [10] | disease control rating, Example I [11] | disease control rating, Example H [12] | Plasma Cholesterol, Treated [13]
CC(C)CCC[C@@H](C)[C@H]1CN=C2C3=C(CC[C@@]21C)[C@@]1(C)CC[C@H](O)C(C)(C)[C@@H]1CC3 [Example 1817] | 62% | 1% | 92% | 97% | 25% | 90% | 500 nM | 99% | 97% | 0% | – | – | –
CC(C)CCC[C@@H](C)[C@H]1CN=C2C3=C(CC[C@@]21C)[C@@]1(C)CC[C@H](O)C[C@@H]1CC3 [Example 1818] | 100% | 6% | 98% | 95% | 95% | 99% | 160 nM | 100% | 78% | 0% | 100% | 94% | –
CC(C)CCC[C@@H](C)[C@H]1CO[C@@]2(C)C3=C(CC[C@]12C)[C@@]1(C)CC[C@H](O)C(C)(C)[C@@H]1CC3 [Example 1, 15-Oxa-dihydrolanosterol] | – | – | – | – | – | – | 180 nM | – | – | – | – | – | 120. ± 2.0 mg/dl
